Experimental data as given in patent US12257246B2, “Composition of 2,4,6-trifluoro-n-[6-(1-methyl-piperidin-4-carbonyl)-pyridin-2-yl[-benzamide” (CoLucid Pharmaceuticals, Inc., priority 2009, dated 2025).
Entries after “also recorded” stand apart in the source; their conditions may differ. Marks after values point to notes of the source that are not given here.

Test system: migraine attack
Test: Intravenous dose-finding study in acute migraine: headache response (moderate or severe becoming mild or none) and secondary efficacy
Assay type: in vivo, human
Description: Preclinical and early clinical experiments predict acute anti-migraine efficacy of Compound I that is mediated through a non-vascular, primarily neural, mechanism. In a multi-centre, placebo-controlled, double-blind, group-sequential, adaptive treatment-assignment, proof-of-concept and dose-finding study, 130 patients were treated in-hospital during a migraine attack. Patients were allocated to an intravenous dose level of Compound I or placebo in small cohorts. The starting dose was 2.5 mg. Subsequent doses were adjusted, up or down, according to the safety and efficacy seen in the preceding cohort. The primary outcome measure was headache response defined as improvement from moderate or severe headache at baseline to mild or no headache at 2 hours post-dose. The study was designed to explore the overall dose response relationship but was not powered to differentiate individual doses from placebo, nor to detect effect differences for other migraine symptoms.
The study used a prospective, randomized, double-blind, placebo-controlled design with group-sequential adaptive-treatment assignment (Olesen J et al., N Engl J Med 2004: 350: 1104-10; Hall D B et al., Contemporary Clinical Trials 2005; 26: 349-63). […] The first cohort was allocated to the 2.5 mg dose level. The dose used in subsequent cohorts depended on the headache response (moderate or severe headache reduced to mild or none at 2 hours) of the previous cohort: if 2 or less of the 4 active-treated patients had responded, the dose was increased, and if 3 or more of the 4 active-treated patients had responded, the dose was reduced. The dose adjustment rules were chosen to identify doses of Compound I with efficacy similar to or better than an oral triptan. […] The occurrence of a drug-related serious adverse event would lead to automatic suspension of the randomization pending a safety review.
Patients were initially screened for eligibility at an out-patient visit outside a migraine attack, and were invited to return to the clinic for treatment with study medication of a new, moderate or severe migraine attack within 4 hours of onset. On return to the clinic, eligibility for the study was reconfirmed and the patient was randomized. Patients were eligible for the study if they were between 18 and 65 years of age and had at least a 1 year history of migraine with or without aura fulfilling the IHS diagnostic criteria 1.1 and 1.2.1 (2004), with a migraine onset before the age of 50 years (Headache Classification Subcommittee of the International Headache Society. The International Classification of Headache Disorders (second edition). Cephalalgia 2004: 24; Supp11:1-160). Patients had to be experiencing between 1 and 8 migraine attacks a month and not be using migraine prophylactic medication. Patients were in good general health and had no evidence of vascular disease or hypertension. Patients with previous intolerance of triptans were excluded. Pregnant or breast-feeding women were excluded, as were women of childbearing potential who were not using a highly reliable form of contraception.
On return of the patient to the clinic, instructions for dilution of study drug were obtained from an online randomization system by a pharmacist or other study personnel, independent of the investigator, and the study drug for infusion was prepared. Both investigator and pharmacist were blinded with regard to active or placebo and only the pharmacist knew the dilution. All patients received a 60 ml intravenous infusion over 20 minutes. Efficacy and safety data before and after administration of study drug were entered immediately into an electronic data capture system, so allowing the headache response to be used to drive dose-allocation for subsequent cohorts.
Data were entered concurrently into an online electronic data capture system. Patients were discharged from the clinic after 4 h and continued to record migraine symptoms and adverse events until 24 h using a diary card. […]

SMILES: CN1CCC(C(=O)c2cccc(NC(=O)c3c(F)cc(F)cc3F)n2)CC1 [Compound I, 2,4,6-trifluoro-N-[6-(1-methyl-piperidin-4-ylcarbonyl)-pyridin-2-yl]-benzamide]
- Impression: very much/much better 2h (2.5 mg iv): 75.0% of Patients
- Nausea 2 h (2.5 mg iv): 25.0% of Patients
- No/mild disability 2 h (2.5 mg iv): 75.0% of Patients
- Pain freedom 2 h (2.5 mg iv): 0.0% of Patients
- Phonophobia 2 h (2.5 mg iv): 25.0% of Patients
- Photophobia 2 h (2.5 mg iv): 25.0% of Patients
- Sustained pain free (2.5 mg iv): 0.0% of Patients
- Sustained pain response (2.5 mg iv): 50.0% of Patients
- Use of rescue medication, 2-24 h (2.5 mg iv): 25.0% of Patients
- Proportion of Patients with headache response (2.5 mg iv, 10 min post dose): 0.0% of Patients
- Proportion of Patients with headache response (2.5 mg iv, 20 min post dose): 0.0% of Patients
- Proportion of Patients with headache response (2.5 mg iv, 40 min post dose): 0.0% of Patients
- Proportion of Patients with headache response (2.5 mg iv, 60 min post dose): 50.0% of Patients
- Proportion of Patients with headache response (2.5 mg iv, 90 min post dose): 50.0% of Patients
- Proportion of Patients with headache response (2.5 mg iv, 120 min post dose): 50.0% of Patients
- Proportion of Patients with headache response (2.5 mg iv, 180 min post dose): 50.0% of Patients
- Proportion of Patients with headache response (2.5 mg iv, 240 min post dose): 75.0% of Patients
- Impression: very much/much better 2h (5 mg iv): 8.3% of Patients
- Nausea 2 h (5 mg iv): 41.7% of Patients
- No/mild disability 2 h (5 mg iv): 16.6% of Patients
- Pain freedom 2 h (5 mg iv): 0.0% of Patients
- Phonophobia 2 h (5 mg iv): 41.7% of Patients
- Photophobia 2 h (5 mg iv): 75.0% of Patients
- Sustained pain free (5 mg iv): 0.0% of Patients
- Sustained pain response (5 mg iv): 8.3% of Patients
- Use of rescue medication, 2-24 h (5 mg iv): 91.7% of Patients
- Proportion of Patients with headache response (5 mg iv, 10 min post dose): 8.3% of Patients
- Proportion of Patients with headache response (5 mg iv, 20 min post dose): 16.7% of Patients
- Proportion of Patients with headache response (5 mg iv, 40 min post dose): 25.0% of Patients
- Proportion of Patients with headache response (5 mg iv, 60 min post dose): 25.0% of Patients
- Proportion of Patients with headache response (5 mg iv, 90 min post dose): 25.0% of Patients
- Proportion of Patients with headache response (5 mg iv, 120 min post dose): 16.7% of Patients
- Proportion of Patients with headache response (5 mg iv, 180 min post dose): 25.0% of Patients
- Proportion of Patients with headache response (5 mg iv, 240 min post dose): 33.3% of Patients
- Impression: very much/much better 2h (10 mg iv): 37.5% of Patients
- Nausea 2 h (10 mg iv): 12.5% of Patients
- No/mild disability 2 h (10 mg iv): 54.2% of Patients
- Pain freedom 2 h (10 mg iv): 20.8% of Patients
- Phonophobia 2 h (10 mg iv): 25.0% of Patients
- Photophobia 2 h (10 mg iv): 45.8% of Patients
- Sustained pain free (10 mg iv): 12.5% of Patients
- Sustained pain response (10 mg iv): 33.3% of Patients
- Use of rescue medication, 2-24 h (10 mg iv): 58.3% of Patients
- Proportion of Patients with headache response (10 mg iv, 10 min post dose): 8.3% of Patients
- Proportion of Patients with headache response (10 mg iv, 20 min post dose): 25.0% of Patients
- Proportion of Patients with headache response (10 mg iv, 40 min post dose): 37.5% of Patients
- Proportion of Patients with headache response (10 mg iv, 60 min post dose): 50.0% of Patients
- Proportion of Patients with headache response (10 mg iv, 90 min post dose): 45.8% of Patients
- Proportion of Patients with headache response (10 mg iv, 120 min post dose): 54.2% of Patients
- Proportion of Patients with headache response (10 mg iv, 180 min post dose): 54.2% of Patients
- Proportion of Patients with headache response (10 mg iv, 240 min post dose): 54.2% of Patients
- onset of headache relief (20 mg and 30 mg iv): speed onset of headache relief; also recorded: rapid onset of headache relief
- Impression: very much/much better 2h (20 mg iv): 42.9% of Patients
- Nausea 2 h (20 mg iv): 21.4% of Patients
- No/mild disability 2 h (20 mg iv): 57.1% of Patients
- Pain freedom 2 h (20 mg iv): 28.6% of Patients
- Phonophobia 2 h (20 mg iv): 25.0% of Patients
- Photophobia 2 h (20 mg iv): 42.9% of Patients
- Sustained pain free (20 mg iv): 17.9% of Patients
- Sustained pain response (20 mg iv): 35.7% of Patients
- Use of rescue medication, 2-24 h (20 mg iv): 53.6% of Patients
- Proportion of Patients with headache response (20 mg iv, 10 min post dose): 14.3% of Patients
- Proportion of Patients with headache response (20 mg iv, 20 min post dose): 39.3% of Patients
- Proportion of Patients with headache response (20 mg iv, 40 min post dose): 50.0% of Patients
- Proportion of Patients with headache response (20 mg iv, 60 min post dose): 53.6% of Patients
- Proportion of Patients with headache response (20 mg iv, 90 min post dose): 53.6% of Patients
- Proportion of Patients with headache response (20 mg iv, 120 min post dose): 64.3% of Patients
- Proportion of Patients with headache response (20 mg iv, 180 min post dose): 60.7* Percent of Patients
- Proportion of Patients with headache response (20 mg iv, 240 min post dose): 57.1* Percent of Patients
- Impression: very much/much better 2h (30 mg iv): 68.8% of Patients
- Nausea 2 h (30 mg iv): 6.3% of Patients
- No/mild disability 2 h (30 mg iv): 75.1% of Patients
- Pain freedom 2 h (30 mg iv): 37.5% of Patients
- Phonophobia 2 h (30 mg iv): 25.0% of Patients
- Photophobia 2 h (30 mg iv): 25.0% of Patients
- Sustained pain free (30 mg iv): 18.8% of Patients
- Sustained pain response (30 mg iv): 56.3% of Patients
- Use of rescue medication, 2-24 h (30 mg iv): 37.5% of Patients
- associated symptoms (photophobia, phonophobia, nausea) (30 mg iv): reduced associated symptoms of photophobia, phonophobia, and nausea
- headache recurrence within 24 hours (30 mg iv): reduced headache recurrence
- moderate or severe disability reported (30 mg iv): reduced the percent of moderate or severe disability reported
- patient global impression 2 hours post dose (30 mg iv): increased the number of patients who felt much or very much better; also recorded: increase in the number of patients who felt much better or very much better
- use of rescue medication (30 mg iv): reduced the use of rescue medication
- pain free at 2 hours versus placebo (30 mg iv over 20 minutes): completely abolished headache in a greater number of patients than placebo; also recorded: completely abolishes headache (‘pain free’) in a greater number of patients than placebo
- Proportion of Patients with headache response (30 mg iv, 10 min post dose): 12.5% of Patients
- Proportion of Patients with headache response (30 mg iv, 20 min post dose): 50.0% of Patients
- Proportion of Patients with headache response (30 mg iv, 40 min post dose): 75.0* Percent of Patients
- Proportion of Patients with headache response (30 mg iv, 60 min post dose): 75.0* Percent of Patients
- Proportion of Patients with headache response (30 mg iv, 90 min post dose): 68.8% of Patients
- Proportion of Patients with headache response (30 mg iv, 120 min post dose): 68.8% of Patients
- Proportion of Patients with headache response (30 mg iv, 180 min post dose): 68.8* Percent of Patients
- Proportion of Patients with headache response (30 mg iv, 240 min post dose): 68.8* Percent of Patients
- Impression: very much/much better 2h (45 mg iv): 50.0% of Patients
- Nausea 2 h (45 mg iv): 25.0% of Patients
- No/mild disability 2 h (45 mg iv): 25.0% of Patients
- Pain freedom 2 h (45 mg iv): 25.0% of Patients
- Phonophobia 2 h (45 mg iv): 25.0% of Patients
- Photophobia 2 h (45 mg iv): 25.0% of Patients
- Sustained pain free (45 mg iv): 25.0% of Patients
- Sustained pain response (45 mg iv): 25.0% of Patients
- Use of rescue medication, 2-24 h (45 mg iv): 25.0% of Patients
- Proportion of Patients with headache response (45 mg iv, 10 min post dose): 75.0* Percent of Patients
- Proportion of Patients with headache response (45 mg iv, 20 min post dose): 75.0% of Patients
- Proportion of Patients with headache response (45 mg iv, 40 min post dose): 75.0% of Patients
- Proportion of Patients with headache response (45 mg iv, 60 min post dose): 50.0% of Patients
- Proportion of Patients with headache response (45 mg iv, 90 min post dose): 75.0% of Patients
- Proportion of Patients with headache response (45 mg iv, 120 min post dose): 75.0% of Patients
- Proportion of Patients with headache response (45 mg iv, 180 min post dose): 75.0% of Patients
- Proportion of Patients with headache response (45 mg iv, 240 min post dose): 25.0% of Patients
- time at which response starts to separate from placebo (doses of 20 mg and above, after start of infusion): 20 min
- efficacy in acute treatment of migraine (intravenous doses of 20 mg and higher): proved effective
- effective dose identified by predefined stopping rules (iv over 20 min, primary endpoint): 20 mg
